The subject of test [1] is normal mice. Nature of the test: Clotting time in normal mice (capillary method). The settings on record: 3 days, 1 h after last administration. The arrangement: unit not given here. It is filed as in vivo, Kunming mice. The protocol:
100 Kunming mice were randomly divided into 5 groups, i.e. the blank control group (normal saline group), the icariin group (positive control group), the high-dose icaritin group, the medium-dose icaritin group, and the low-dose icaritin group. Each group was administered as follows.
Blank control group: administered with the same volume of normal saline by subcutaneous injection;
Icariin group: administered with 2 mg/kg of icariin by injection;
High-dose icaritin group: administered with the injection of icaritin of Example 1 by subcutaneous injection at a dosage of 10 mg/kg;
Medium-dose icaritin group: administered with the injection of icaritin of Example 1 by subcutaneous injection at a dosage of 5 mg/kg;
Low-dose icaritin group: administered with the injection of icaritin of Example 1 by subcutaneous injection at a dosage of 1 mg/kg.
Measurement of the clotting time: The normal saline group (blank control group), the icariin group (positive control group), and the icaritin administration groups (high-, medium-, and low-dose groups) were designed as follows: 50 mice were selected, weighed and randomly divided into 5 groups, with 10 mice in each group. The animals were administered consecutively for 3 days. At 1 h after the last administration, blood was sampled from the venous plexus by inserting a disposable 20 μl blood collection tube into the inner canthus of the mouse to collect 20 μl of blood. A small fragment of capillary was broken off every 15 s for checking the occurrence of clotting filaments. The time from the blood sampling to the occurrence of fibrous protein filaments (clotting time) was recorded, and the results were shown in Table 5.

Test [2] relates to NOD/Ltj mice. Nature of the test: Effect on the white blood cells and platelets in NOD mice. Format: in vivo. The note with it: 15 days. Here is the method:
Non-obese diabetic (NOD) mice are a large mouse strains, including NOD/Scid, NOD/Ltj mice, etc. The NOD/Ltj mice used in this experiment are mice with an abnormal immune system in which platelets and white blood cells are obviously lower than those in normal mice.
5-Week-old healthy NOD mice, after adaptive feeding for one week, were randomly divided into 4 groups:
Group I was the blank control group, totally 13 mice; and was administered intragastrically with normal saline in the same volume of interleukin daily;
Group II was the positive control group, totally 13 mice, and was administered intragastrically with 10.0 mg/kg of interleukin daily;
Group III was the low-dose icaritin group, totally 13 mice, and was administered intragastrically with 30 mg/kg of icaritin daily;
Group IV was the high-dose icaritin group, totally 13 mice, and was administered intragastrically with 60 mg/kg of icaritin daily.
Each group was administered once a day for consecutively 15 days. The mice were anaesthetized (with 3% pentobarbital sodium, by intraperitoneal injection, at 0.1-0.15 ml per animal). 1 ml of blood wass sampled from abdominal aorta into an anticoagulation tube for routine blood test.

Test [3] deals with model of thrombocytopenia induced by cyclophosphamide in mice. Nature of the test: Thrombocytopenia induced by cyclophosphamide in mice (platelets in peripheral blood). Format: in vivo, Balb/C mice. The settings on record: cyclophosphamide model mice, 3 weeks, x ± s. The protocol: 72 Balb/C mice were selected, weighed, and randomly divided into 6 groups, i.e. the normal group, the model control group, the icariin group (positive control group), and the icaritin administration groups (high-, medium-, and low-dose groups), with 12 mice in each group. […] One week before starting to establish the model, each group was administered with the following therapeutic agents:
The normal group: administered subcutaneously with the same volume of normal saline;
The model control group: administered subcutaneously with the same volume of normal saline;
The icariin group: administered by subcutaneous injection with 2 mg/kg of icariin;
The high-dose icaritin group: administered by subcutaneous injection with 10 mg/kg of the icaritin injection of Example 11;
The medium-dose icaritin group: administered by subcutaneous injection with 5 mg/kg of the icaritin injection of Example 11;
The low-dose icaritin group: administered by subcutaneous injection with 1 mg/kg of the icaritin injection of Example 11.
Each group was administered once a day and fed normally. After consecutive administration for 3 weeks, the mice were anesthetized, and blood was sampled to measure the number of platelets and determine the effect of icaritin on the number of platelets (PLT) in the peripheral blood.

The test system of test [4] is chronic ITP model rats. Nature of the test: Thrombin time, prothrombin time and partial thromboplastin time in chronic ITP model rats. It is filed as in vivo, Wistar rats. The settings on record: high- and medium-dose groups, P<0.05. The protocol: Establishment of chronic ITP model: Wistar rats were selected to establish the model by injecting rabbit anti-rat platelet serum (APS). […] 50 Rats in which the model was successfully established were selected, weighed, and randomly divided into 5 groups, i.e. the model control group, the icariin group (positive control group), and the icaritin administration groups (high-, medium- and low-dose groups), with 10 rats in each group. The groups were administered with the following therapeutic agents, respectively.

The subject of test [5] is active immune thrombocytopenia mice. Nature of the test: Active immune thrombocytopenia in mice (platelets in peripheral blood). It is filed as in vivo, Balb/C mice. The settings on record: x ± s. The protocol: 72 Balb/C mice were selected, weighed, and randomly divided into […] administration groups, i.e. the normal group, the model control group, the icariin group (positive control group), and the icaritin administration groups (high-, medium-, and low-dose groups), with 12 mice in each group. […] On the second day after the model was established, each group was administered with the following therapeutic agents: The normal group: administered intragastrically with the same volume of normal saline; The model control group: administered intragastrically with the same volume of normal saline; The […]: […]; The high-dose icaritin group: […] Example 9; The medium-dose icaritin group: […] Example 9; The low-dose icaritin group: […] Each of the administration groups was administered once a day and fed normally. After establishing the model three times, each administration group was continued to be administered for one week. The mice were anesthetized, and blood was sampled to measure the number of platelets and determine the effect of icaritin on the number of platelets (PLT) in the peripheral blood.

Where [6] appears, read: high dose 60 mg/kg intragastrically daily.
Setting [7] is: low dose 30 mg/kg intragastrically daily.

Marks after values point to notes of the source that are not given here.

For `COc1ccc(-c2oc3c(CC=C(C)C)c(O)cc(O)c3c(=O)c2O)cc1` [Icaritin], the “Clotting Time” value in test [1] (high dose 10 mg/kg sc) is recorded as 1.96 ± 0.16**^ΔΔ; in test [1] (low dose 1 mg/kg sc), 3.84 ± 0.55; in test [1] (medium dose 5 mg/kg sc), 3.04 ± 0.31**^Δ. Further, the Platelets in test [2] (setting [6]) is listed as 780.2 ± 46.5 ^##$$ 10^9/L; in test [2] (setting [7]), 730.5 ± 34.6^##$ 10^9/L. Besides, the White blood cells in test [2] (setting [6]) is 4.225 ± 0.51^##$ 10^9/L; in test [2] (setting [7]), 3.242 ± 0.45 ^#$ 10^9/L. Further, the PLT is 633.5 ± 43.2 10^9/L in test [3] (low dose 1 mg/kg sc (injection of Example 11)); 725.9 ± 66.7 10^9/L in test [3] (medium dose 5 mg/kg sc (injection of Example 11)); 1193.4 ± 95.4 10^9/L in test [5] (high dose 100 mg/kg intragastric (tablets of Example 9)); 862.7 ± 75.6 10^9/L in test [5] (low dose 10 mg/kg intragastric (tablets of Example 9)); 983.5 ± 85.7 10^9/L in test [5] (medium dose 50 mg/kg intragastric (tablets of Example 9)). Further, the “partial thromboplastin time (APTT)” value in test [4] is recorded as “significantly shorten”. Also, the “prothrombin time (PT)” value in test [4] is listed as “significantly shorten”. For the same compound, the “thrombin time (TT)” value in test [4] is on record as “significantly shorten”.
